Reference: PubChem BioAssay AID256 (DTP/NCI, 2004)
Several values for one entry are separate records, joined by “and”; a condition that tells them apart may be missing. Equal values may be shown once. Toxic doses and inconclusive results are not listed. The calls were made as follows: active = survival T/C of 150% or more; inactive = T/C below 125% in these data.

Tested on: CD2F1 mice, L1210 leukemia ip, survival T/C
Test: NCI In Vivo Anticancer Drug Screen. Data for tumor model L1210 Leukemia (intraperitoneal) in CD2F1 (CDF1) mice
Details: higher = longer survival
Procedure, shortened: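 Transplantable tumor in mice; compound-treated vs vehicle-treated groups. Read-out = treated/control ratio of the measured endpoint.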

[1] = endpoint: mean survival time, dose: 12.5 mg/kg/injection, schedule: Q01DX009 (ip), vehicle: saline with Tween-80
[2] = endpoint: mean survival time, dose: 25.0 mg/kg/injection, schedule: Q01DX009 (ip), vehicle: saline with Tween-80
[3] = endpoint: mean survival time, dose: 50.0 mg/kg/injection, schedule: Q01DX009 (ip), vehicle: saline with Tween-80
[4] = endpoint: mean survival time, dose: 12.5 mg/kg/injection, schedule: Q01DX009 (ip), vehicle: Klucel (hydroxypropylcellulose) (HPC)
[5] = endpoint: mean survival time, dose: 25.0 mg/kg/injection, schedule: Q01DX009 (ip), vehicle: Klucel (hydroxypropylcellulose) (HPC)
[6] = endpoint: mean survival time, dose: 50.0 mg/kg/injection, schedule: Q01DX009 (ip), vehicle: Klucel (hydroxypropylcellulose) (HPC)
[7] = endpoint: mean survival time, dose: 100.0 mg/kg/injection, schedule: Q01DX009 (ip), vehicle: Klucel (hydroxypropylcellulose) (HPC)
[8] = endpoint: mean survival time, dose: 100.0 mg/kg/injection, schedule: Q01DX009 (ip), vehicle: saline with Tween-80
[9] = endpoint: mean survival time, dose: 200.0 mg/kg/injection, schedule: Q01DX009 (ip), vehicle: Klucel (hydroxypropylcellulose) (HPC)
[10] = endpoint: mean survival time, dose: 200.0 mg/kg/injection, schedule: Q01DX009 (ip), vehicle: saline with Tween-80
[11] = endpoint: mean survival time, dose: 400.0 mg/kg/injection, schedule: Q01DX009 (ip), vehicle: saline with Tween-80
[12] = endpoint: mean survival time, dose: 100.0 mg/kg/injection, schedule: Q04DX003 (ip), vehicle: saline with Tween-80
[13] = endpoint: mean survival time, dose: 200.0 mg/kg/injection, schedule: Q04DX003 (ip), vehicle: saline with Tween-80
[14] = endpoint: mean survival time, dose: 400.0 mg/kg/injection, schedule: Q04DX003 (ip), vehicle: saline with Tween-80
[15] = endpoint: mean survival time, dose: 100.0 mg/kg/injection, schedule: Q04DX002 (ip), vehicle: saline with Tween-80
[16] = endpoint: mean survival time, dose: 25.0 mg/kg/injection, schedule: Q01DX009 (ip), vehicle: other
[17] = endpoint: mean survival time, dose: 50.0 mg/kg/injection, schedule: Q01DX009 (ip), vehicle: other
[18] = endpoint: mean survival time, dose: 100.0 mg/kg/injection, schedule: Q01DX009 (ip), vehicle: other

Measured: T/C

COc1ccc2[nH]cc(CCN(C)C)c2c1
inactive: [1] 94 % of control | endpoint: mean survival time, dose: 12.5 mg/kg/injection, schedule: Q04DX003 (ip), vehicle: saline with Tween-80 100 % of control | [2] 91 % of control | endpoint: mean survival time, dose: 25.0 mg/kg/injection, schedule: Q04DX003 (ip), vehicle: saline with Tween-80 95 % of control | [3] 92 % of control | endpoint: mean survival time, dose: 50.0 mg/kg/injection, schedule: Q04DX003 (ip), vehicle: saline with Tween-80 96 % of control

CCOC(=O)c1ccc(NC(=O)Nc2nccs2)cc1
inactive: endpoint: mean survival time, dose: 6.25 mg/kg/injection, schedule: Q01DX009 (ip), vehicle: Klucel (hydroxypropylcellulose) (HPC) 101 % of control | endpoint: mean survival time, dose: 6.25 mg/kg/injection, schedule: Q01DX009 (oral), vehicle: Klucel (hydroxypropylcellulose) (HPC) 101 % of control | [4] 100 % of control | [1] 108 % of control | endpoint: mean survival time, dose: 12.5 mg/kg/injection, schedule: Q01DX009 (oral), vehicle: Klucel (hydroxypropylcellulose) (HPC) 100 % of control | endpoint: mean survival time, dose: 12.5 mg/kg/injection, schedule: Q01DX009 (oral), vehicle: saline with Tween-80 103 % of control | [5] 97 % of control | [2] 110 % of control | endpoint: mean survival time, dose: 25.0 mg/kg/injection, schedule: Q01DX009 (oral), vehicle: Klucel (hydroxypropylcellulose) (HPC) 100 % of control | endpoint: mean survival time, dose: 25.0 mg/kg/injection, schedule: Q01DX009 (oral), vehicle: saline with Tween-80 97 % of control | [6] 97 % of control | [3] 114 % of control and 122 % of control | endpoint: mean survival time, dose: 50.0 mg/kg/injection, schedule: Q01DX009 (oral), vehicle: Klucel (hydroxypropylcellulose) (HPC) 105 % of control | endpoint: mean survival time, dose: 50.0 mg/kg/injection, schedule: Q01DX009 (oral), vehicle: saline with Tween-80 100 % of control | [7] 105 % of control | [8] 121 % of control and 110 % of control | endpoint: mean survival time, dose: 100.0 mg/kg/injection, schedule: Q01DX009 (oral), vehicle: Klucel (hydroxypropylcellulose) (HPC) 95 % of control | endpoint: mean survival time, dose: 100.0 mg/kg/injection, schedule: Q01DX009 (oral), vehicle: saline with Tween-80 101 % of control | [9] 110 % of control | [10] 106 % of control | endpoint: mean survival time, dose: 200.0 mg/kg/injection, schedule: Q01DX009 (oral), vehicle: Klucel (hydroxypropylcellulose) (HPC) 100 % of control | endpoint: mean survival time, dose: 200.0 mg/kg/injection, schedule: Q01DX009 (oral), vehicle: saline with Tween-80 95 % of control | [11] 121 % of control | endpoint: mean survival time, dose: 400.0 mg/kg/injection, schedule: Q01DX009 (oral), vehicle: saline with Tween-80 97 % of control

C[n+]1cccc(C(=S)[S-])c1
inactive: [2] 102 % of control | [3] 101 % of control | [12] 101 % of control

C[C@]12CC[C@H](O)CC1=CC[C@@H]1[C@@H]2CC[C@]2(C)C(=O)CC[C@@H]12
inactive: [6] 98 % of control | [7] 102 % of control | [9] 94 % of control | endpoint: median survival time, dose: 25.0 mg/kg/injection, schedule: Q01DX009 (ip), vehicle: saline with Tween-80 101 % of control | endpoint: median survival time, dose: 50.0 mg/kg/injection, schedule: Q01DX009 (ip), vehicle: saline with Tween-80 101 % of control | endpoint: median survival time, dose: 100.0 mg/kg/injection, schedule: Q01DX009 (ip), vehicle: saline with Tween-80 92 % of control | endpoint: median survival time, dose: 200.0 mg/kg/injection, schedule: Q01DX009 (ip), vehicle: saline with Tween-80 92 % of control | endpoint: median survival time, dose: 400.0 mg/kg/injection, schedule: Q01DX009 (ip), vehicle: saline with Tween-80 91 % of control

c1ccc2c[n+]3ccccc3cc2c1
inactive: endpoint: mean survival time, dose: 12.5 mg/kg/injection, schedule: Q04DX003 (ip), vehicle: saline 97 % of control | endpoint: mean survival time, dose: 25.0 mg/kg/injection, schedule: Q04DX003 (ip), vehicle: saline 98 % of control

COc1ccccc1C(O)(c1ccccc1OC)c1c(OC)cccc1OC
inactive: [8] 97 % of control | [10] 93 % of control | [11] 88 % of control

O=C(N/N=C/c1ccc2c(c1)CCC2)c1ccncc1
inactive: [12] 98 % of control | [13] 96 % of control | [14] 98 % of control

C[Si](C)(C)O/C=C1\CCCCC1=O
inactive: endpoint: mean survival time, dose: 6.25 mg/kg/injection, schedule: Q01DX009 (ip), vehicle: saline with Tween-80 98 % of control and 100 % of control | [1] 96 % of control and 98 % of control | [2] 91 % of control and 100 % of control | [3] 93 % of control and 100 % of control | [8] 93 % of control and 102 % of control | [10] 105 % of control

O=C(O)COc1ccc(F)cc1Br
inactive: [15] 93 % of control | endpoint: mean survival time, dose: 200.0 mg/kg/injection, schedule: Q04DX002 (ip), vehicle: saline with Tween-80 93 % of control | endpoint: mean survival time, dose: 400.0 mg/kg/injection, schedule: Q04DX002 (ip), vehicle: saline with Tween-80 93 % of control

O=[N+]([O-])c1ccc(F)c(Cl)c1
inactive: [16] 96 % of control | [17] 100 % of control | [18] 96 % of control

O=[N+]([O-])c1ccc(N/N=C(/C(=N/Nc2ccc([N+](=O)[O-])cc2)c2ccccc2)c2ccccc2)cc1
inactive: endpoint: mean survival time, dose: 12.5 mg/kg/injection, schedule: Q01DX009 (ip), vehicle: other 104 % of control | [16] 101 % of control | [17] 102 % of control | [18] 93 % of control | [12] 93 % of control | endpoint: mean survival time, dose: 200.0 mg/kg/injection, schedule: Q01DX009 (ip), vehicle: other 93 % of control | [13] 88 % of control | [14] 88 % of control

C=C(NC(=O)C(=C)NC(=O)c1csc(C2=NC3c4csc(n4)C4NC(=O)c5csc(n5)C(C(C)(O)C(C)O)NC(=O)C5CSC(=N5)/C(=C/C)NC(=O)C(C(C)O)NC(=O)c5csc(n5)C3(CC2)NC(=O)C(C)NC(=O)C(=C)NC(=O)C(C)NC(=O)C(C(C)CC)NC2C=Cc3c(C(C)O)cc(nc3C2O)C(=O)OC4C)n1)C(N)=O (stereo unspecified)
inactive: endpoint: mean survival time, dose: 118.0 mg/kg/injection, schedule: Q04DX003 (ip), vehicle: saline 117 % of control

[Br][Pt+2][Br].[NH-]C1CCCCC1[NH-] (stereo unspecified)
inactive: endpoint: mean survival time, dose: 0.78 mg/kg/injection, schedule: Q04DX003 (ip), vehicle: saline with Tween-80 110 % of control | endpoint: mean survival time, dose: 1.56 mg/kg/injection, schedule: Q04DX003 (ip), vehicle: saline with Tween-80 113 % of control

Cc1nc(N)c2ncn(C3OC(CO)C(O)C3O)c2n1 (stereo unspecified)
inactive: [15] 115 % of control

COc1ccc2[nH]c(=O)oc(=O)c2c1
inactive: [4] 96 % of control | [5] 102 % of control | [6] 108 % of control | endpoint: mean survival time, dose: 100.0 mg/kg/injection, schedule: Q01DX001 (ip), vehicle: saline with Tween-80 96 % of control | [7] 106 % of control | [8] 104 % of control | endpoint: mean survival time, dose: 200.0 mg/kg/injection, schedule: Q01DX001 (ip), vehicle: saline with Tween-80 107 % of control | endpoint: mean survival time, dose: 400.0 mg/kg/injection, schedule: Q01DX001 (ip), vehicle: saline with Tween-80 105 % of control

CCCNCCN(CC)CC
inactive: endpoint: mean survival time, dose: 50.0 mg/kg/injection, schedule: Q01DX009 (ip), vehicle: saline 96 % of control | endpoint: mean survival time, dose: 100.0 mg/kg/injection, schedule: Q01DX009 (ip), vehicle: saline 93 % of control | endpoint: mean survival time, dose: 100.0 mg/kg/injection, schedule: Q04DX003 (ip), vehicle: saline 100 % of control | endpoint: mean survival time, dose: 200.0 mg/kg/injection, schedule: Q01DX009 (ip), vehicle: saline 96 % of control | endpoint: mean survival time, dose: 200.0 mg/kg/injection, schedule: Q04DX003 (ip), vehicle: saline 96 % of control
